Reference: US7560567B2, “2-pyridinylethylbenzamide derivatives” (Bayer Cropscience S.A., priority 2003, dated 2009)

Legend:
Pyrenophora teres = experiment: In vivo test on Pyrenophora teres (barley net blotch), barley plants, preventive spray; conditions: 288 h, barley plants (Express), treated 24 h before contamination, grading 12 days after contamination vs control plants, read-out: protection (good, at least 50%, to total)
Method: (§1) The active ingredient tested is prepared by potter homogenisation in a concentrated suspension type formulation at 100 g/l. This suspension is then diluted with water to obtain the desired active material concentration.
(§2) Barley plants (Express variety) in starter cups, sown on a 50/50 peat soil-pozzolana substrate and grown at 12° C., are treated at the 1-leaf stage (10 cm tall) by spraying with the aqueous suspension described above. Plants, used as controls, are treated with an aqueous solution not containing the active material.
After 24 hours, the plants are contaminated by spraying them with an aqueous suspension of Pyrenophora teres spores (12,000 spores per ml). The spores are collected from a 12-day-old culture. The contaminated barley plants are incubated for 24 hours at about 20° C. and at 100% relative humidity, and then for 12 days at 80% relative humidity.
Grading is carried out 12 days after the contamination, in comparison with the control plants.

Alternaria brassicae = experiment: In vivo test on Alternaria brassicae (leaf spot of crucifers), radish plants, preventive spray; conditions: for pest or weed control at 330 ppm: Alternaria brassicae, radish plants (Pernot), treated 24 h before contamination, grading 6 to 7 days after contamination vs control plants, read-out: protection (good, at least 50%, to total); for effectiveness on Alternaria brassicae: 330 ppm, comparison compounds of WO 01/11965
Method: as §1
Radish plants (Pernot variety) in starter cups, sown on a 50/50 peat soil-pozzolana substrate and grown at 18-20° C., are treated at the cotyledon stage by spraying with the aqueous suspension described above.
Plants, used as controls, are treated with an aqueous solution not containing the active material.
After 24 hours, the plants are contaminated by spraying them with an aqueous suspension of Alternaria brassicae spores (40,000 spores per cm^3). The spores are collected from a 12-13-day-old culture.
The contaminated radish plants are incubated for 6-7 days at about 18° C., under a humid atmosphere.
Grading is carried out 6 to 7 days after the contamination, in comparison with the control plants.

Botrytis cinerea = experiment: In vivo test on Botrytis cinerea (gherkin grey mould), gherkin plants, preventive spray; conditions: 330 ppm; comparison compounds of WO 01/11965
Method: as §1
as §2, with “Gherkin” for “Barley”, “(Petit Vert de Paris” for “(Express”, “18-20°” for “12°”, “cotyledon Z11” for “1-leaf”, “stage” for “stage (10 cm tall)”
After 24 hours, the plants are contaminated by depositing drops of an aqueous suspension of Botrytis cinerea spores (150,000 spores per ml) on upper surface of the leaves. The spores are collected from a 15-day-old culture and are suspended in a nutrient solution composed of: • 20 g/L of gelatin • 50 g/L of cane sugar • 2 g/L of NH4NO3 • 1 g/L of KH2PO4
The contaminated gherkin plants are settled for 5/7 days in a climatic room at 15-11° C. (day/night) and at 80% relative humidity.
Grading is carried out 5/7 days after the contamination, in comparison with the control plants. Under these conditions, good (at least 50%) or total protection is observed at a dose of 330 ppm with the following compounds: 38 and 57.

| SMILES | pest or weed control at 330 ppm (Pyrenophora teres) | pest or weed control at 330 ppm (Alternaria brassicae) | effectiveness on Botrytis cinerea (Botrytis cinerea) | effectiveness on Alternaria brassicae (Alternaria brassicae) |
| --- | --- | --- | --- | --- |
| CC(CNC(=O)c1ccccc1I)c1ccc(C(F)(F)F)c(Cl)n1 (stereo not drawn) [Compound 63] | ≥ 50% | ≥ 50% | – | – |
| CCCC(CCC)(CNC(=O)c1ccccc1C(F)(F)F)c1ncc(C(F)(F)F)cc1Cl [Compound 35] | – | ≥ 50% | – | – |
| CCCC(CCC)(CNC(=O)c1ccccc1I)c1ncc(C(F)(F)F)cc1Cl [Compound 36] | – | ≥ 50% | – | – |
| CC(CNC(=O)c1ccccc1C(F)(F)F)c1ccc(C(F)(F)F)c(Cl)n1 (stereo not drawn) [Compound 62] | ≥ 50% | ≥ 50% | – | – |
| Cc1ccc(C(=O)NCC(C)c2ncc(C(F)(F)F)cc2Cl)c(C)c1 (stereo not drawn) [Compound 9] | ≥ 50% | ≥ 50% | – | – |
| CCCC(CNC(=O)c1ccccc1Br)c1ncc(C(F)(F)F)cc1Cl (stereo not drawn) [Compound 43] | ≥ 50% | ≥ 50% | – | – |
| CCC(CNC(=O)c1ccccc1Br)c1ncc(C(F)(F)F)cc1Cl (stereo not drawn) [Compound 40] | ≥ 50% | – | – | – |
| CNC(=O)C(Cc1ncc(C(F)(F)F)cc1Cl)NC(=O)c1ccccc1 (stereo not drawn) [compound 314, N-{1-methylcarbamoyl-2-[3-chloro-5-(trifluoromethyl)-2-pyridinyl]ethyl}-benzamide] | – | – | zero | – |
| CCNC(=O)C(Cc1ncc(C(F)(F)F)cc1Cl)NC(=O)c1ccccc1Br (stereo not drawn) [compound 310, N-{1-ethylcarbamoyl-2-[3-chloro-5-(trifluoromethyl)-2-pyridinyl]ethyl}-2-bromobenzamide] | – | – | zero | – |
| CC(NC(=O)c1ccccc1I)C(C)c1ncc(C(F)(F)F)cc1Cl (stereo not drawn) [Compound 59] | ≥ 50% | ≥ 50% | – | – |
| CC(NC(=O)c1ccccc1C(F)(F)F)C(C)c1ncc(C(F)(F)F)cc1Cl (stereo not drawn) [Compound 58] | ≥ 50% | ≥ 50% | – | – |
| CCCC(CNC(=O)c1ccccc1C(F)F)c1ncc(C(F)(F)F)cc1Cl (stereo not drawn) [Compound 44] | ≥ 50% | – | – | – |
| CC(Cc1ccc(C(F)(F)F)c(Cl)n1)NC(=O)c1ccccc1C(F)(F)F (stereo not drawn) [Compound 61] | ≥ 50% | – | – | – |
| CCNC(=O)C(Cc1ncc(C(F)(F)F)cc1Cl)NC(=O)c1cccc([N+](=O)[O-])c1 (stereo not drawn) [compound 307, N-{1-ethylcarbamoyl-2-[3-chloro-5-(trifluoromethyl)-2-pyridinyl]ethyl}-3-nitrobenzamide, reference compound] | – | – | zero | poor |
| Cc1c(F)cccc1C(=O)NCC(C)c1ncc(C(F)(F)F)cc1Cl (stereo not drawn) [Compound 13] | ≥ 50% | ≥ 50% | – | – |
| CNC(=O)C(Cc1ncc(C(F)(F)F)cc1Cl)NC(=O)c1ccc(OC)cc1 (stereo not drawn) [compound 315, N-{1-methylcarbamoyl-2-[3-chloro-5-(trifluoromethyl)-2-pyridinyl]ethyl}-4-methoxybenzamide] | – | – | zero | – |
| CC(Cc1ncc(C(F)(F)F)cc1Cl)NC(=O)c1ccccc1C(F)(F)F (stereo not drawn) [Compound 38] | ≥ 50% | ≥ 50% | – | – |
| CC(CNC(=O)c1cccc(Cl)c1F)c1ncc(C(F)(F)F)cc1Cl (stereo not drawn) [Compound 11] | – | ≥ 50% | – | – |
| CCNC(=O)C(Cc1ncc(C(F)(F)F)cc1Cl)NC(=O)c1ccc(Cl)cc1 (stereo not drawn) [compound 306, N-{1-ethylcarbamoyl-2-[3-chloro-5-(trifluoromethyl)-2-pyridinyl]ethyl}-4-chlorobenzamide] | – | – | zero | – |
| CCC(Cc1ncc(C(F)(F)F)cc1Cl)NC(=O)c1ccccc1C(F)(F)F (stereo not drawn) [Compound 47, N-(1-{[3-chloro-5-(trifluoromethyl)-2-Pyridinyl]methyl}propyl)-2-(trifluoromethyl)benzamide] | ≥ 50% | ≥ 50% | – | – |
| CC(CNC(=O)c1cc(Cl)ccc1Cl)c1ncc(C(F)(F)F)cc1Cl (stereo not drawn) [Compound 3] | – | ≥ 50% | – | – |

| SMILES | pest or weed control at 330 ppm (Pyrenophora teres) | pest or weed control at 330 ppm (Alternaria brassicae) | effectiveness on Botrytis cinerea (Botrytis cinerea) | effectiveness on Alternaria brassicae (Alternaria brassicae) |
| --- | --- | --- | --- | --- |
| COc1ccccc1C(=O)NCC(C)c1ncc(C(F)(F)F)cc1Cl (stereo not drawn) [Compound 4] | – | ≥ 50% | – | – |
| CCC(CNC(=O)c1ccccc1C(F)F)c1ncc(C(F)(F)F)cc1Cl (stereo not drawn) [Compound 41] | ≥ 50% | – | – | – |
| Cc1c(O)cccc1C(=O)NCC(C)c1ncc(C(F)(F)F)cc1Cl (stereo not drawn) [Compound 15] | – | ≥ 50% | – | – |
| CCC(CNC(=O)c1cccc(O)c1C)c1ncc(C(F)(F)F)cc1Cl (stereo not drawn) [Compound 30] | ≥ 50% | – | – | – |
| CCCC(CNC(=O)c1ccccc1C(F)(F)F)c1ncc(C(F)(F)F)cc1Cl (stereo not drawn) [Compound 42] | – | ≥ 50% | – | – |
| CC(C)(CNC(=O)c1ccccc1C(F)(F)F)c1ncc(C(F)(F)F)cc1Cl [Compound 33] | ≥ 50% | ≥ 50% | – | – |
| CC(CNC(=O)c1ccccc1I)c1ccc(C(F)(F)F)cn1 (stereo not drawn) [Compound 67] | ≥ 50% | ≥ 50% | – | – |
| Cc1c(Cl)cccc1C(=O)NCC(C)c1ncc(C(F)(F)F)cc1Cl (stereo not drawn) [Compound 12] | – | ≥ 50% | – | – |
| CCC(CNC(=O)c1ccccc1C)c1ncc(C(F)(F)F)cc1Cl (stereo not drawn) [Compound 23] | – | ≥ 50% | – | – |
| CC(CNC(=O)c1ccccc1C(F)(F)F)c1ccc(C(F)(F)F)cn1 (stereo not drawn) [Compound 66] | ≥ 50% | ≥ 50% | – | – |
| CC(CNC(=O)c1ccccc1Br)c1ccc(C(F)(F)F)c(Cl)n1 (stereo not drawn) [Compound 64] | ≥ 50% | ≥ 50% | – | – |
| CNC(=O)C(Cc1ncc(C(F)(F)F)cc1Cl)NC(=O)c1ccc(-c2ccccc2)cc1 (stereo not drawn) [compound 316, N-{1-methylcarbamoyl-2-[3-chloro-5-(trifluoromethyl)-2-pyridinyl]-ethyl}-4-phenylbenzamide, reference compound] | – | – | zero | poor |
| Cc1cccc(C(=O)NCC(C)c2ncc(C(F)(F)F)cc2Cl)c1C (stereo not drawn) [Compound 8] | ≥ 50% | ≥ 50% | – | – |
| CCC(CNC(=O)c1cccc(OC)c1OC)c1ncc(C(F)(F)F)cc1Cl (stereo not drawn) [Compound 21] | – | ≥ 50% | – | – |
| Cc1ccccc1C(=O)NCC(C)c1ncc(C(F)(F)F)cc1Cl (stereo not drawn) [Compound 7] | ≥ 50% | ≥ 50% | – | – |
| CC(CNC(=O)c1ccccc1C(F)(F)F)c1ncc(C(F)(F)F)cc1Cl (stereo not drawn) [Compound 32] | ≥ 50% | ≥ 50% | – | – |
| CCC(CNC(=O)c1ccccc1C(F)(F)F)c1ncc(C(F)(F)F)cc1Cl (stereo not drawn) [Compound 39, N-{2-[3-chloro-5-(trifluoromethyl)-2-Pyridinyl]butyl}-2-(trifluoromethyl)benzamide] | ≥ 50% | – | – | – |
| CCNC(=O)C(Cc1ncc(C(F)(F)F)cc1Cl)NC(=O)c1ccccc1 (stereo not drawn) [compound 304, N-{1-ethylcarbamoyl-2-[3-chloro-5-(trifluoromethyl)-2-pyridinyl]-ethyl}-benzamide] | – | – | zero | – |
| CCC(CNC(=O)c1ccc(C)cc1C)c1ncc(C(F)(F)F)cc1Cl (stereo not drawn) [Compound 25] | – | ≥ 50% | – | – |
| Cc1ccc(C)c(C(=O)NCC(C)c2ncc(C(F)(F)F)cc2Cl)c1 (stereo not drawn) [Compound 10] | ≥ 50% | ≥ 50% | – | – |
